biological target: T1, human lysophosphatidic acid receptor 1 (LPAR1) (Homo sapiens, UniProt Q92633); experiment: FLIPR test of antagonist properties: inhibition of LPA-induced intracellular calcium elevation in CHO-K1 cells expressing hLPAR1; type: cell-based; conditions: FLIPR calcium assay, CHO-K1/LPA1R cells, LPA at EC80
T1 construct: host or cells: CHO-K1 (Chinese hamster ovary K1) cells, CHO-K1/LPA1R, kept under hygromycin B selection
Procedure: The antagonist properties of the compounds of the present disclosure were tested using the FLIPR (fluorometric imaging plate reader) method. The compounds are inhibitors of intracellular calcium elevation induced by activation of hLPARI (human lysophosphatidic acid receptor 1) expressed in CHO-K1 cells (Chinese hamster ovary K1 cells, HDB).
2.1. Reaction buffer: HBSS+20 mM HEPES+0.1% fatty acid-free BSA+0.001% F-127
2.2. 50×Red dye: (a red dye for blocking background signals in cells) prepared by: weighing out 4 g of tartrazine and 10.2 g of acid red and dissolving them in 100 mL of H2O.
2.3. Fluo-8 staining mixture: 4 mL of reaction buffer, 32 μL of fluo-8, 320 μL of 50×Red dye, and 40 μL of probenecid.
3.1. LPA: dissolved in DPBS (containing 0.1% fatty acid-free BSA) to prepare a 0.8 μM stock solution, and the solution was aliquoted and stored at −20° C.
3.2. Test compound preparation: The test compounds were dissolved in DMSO to prepare 10 mM stock solutions, and the solutions were stored at −20° C. In the experiment, the compounds were first gradient-diluted with DMSO (initial concentration of 50 μM, 3-fold dilution, 10 points) to prepare 200×compound solutions. The compound solutions were then diluted with reaction buffer to give 5×compound solutions, and the solutions were transferred to a 384-well plate (Cat. No. 6008590) using Bravo.
4.1. CHO-K1/LPA1R cells were cultured in a cell culture medium (F-12+10% FBS+400 μg/mL hygromycin B).
4.2. When the cell confluence reached 80%, the cells were digested with 0.25% pancreatin.
4.3. When the cells became round, the digestion was stopped with the medium F-12 (10% FBS), and the cells were counted. Then the cell culture was diluted with F-12 (10% FBS) to give a cell suspension with a density of 6.7×10^5 cells/mL.
4.4. The cell suspension was added to a 384-well black cell culture plate at 30 µL/well using a Multidrop auto-dispenser, and the plate was incubated in a 37° C., 5% CO2 incubator for 20-24 h. The medium was changed to a serum-free F-12 medium, and the cells were starved for 24 h.
4.5. Dose experiment for testing LPA. Gradient dilutions of 6×LPA solution (initial concentration of 60 μM, 3-fold dilution, 10 points) were prepared with reaction buffer. The medium in the 384-well black cell culture plate was discarded and changed to reaction buffer. 10 μL of 5% DMSO reaction buffer was added, and 10 μL of Fluo-8 staining mixture was then added. The plate was incubated in the dark in a 37° C., 5% CO2 incubator for 0.5 h.
4.6. FLIPR was correspondingly programmed, the 6×LPA gradient solutions were added, and readings were taken. Two-minute data were collected.
4.7. A reaction curve was obtained from the numerical values of LPA, and the concentration of LPA at EC80 was calculated. A 6×LPA solution was prepared in a 384-well plate (Cat. No. 6008590), and HPE and ZPE were added to corresponding wells. HPE (one hundred per cent effect) was 60 μM LPA, and ZPE (zero per cent effect) was reaction buffer.
4.8. Testing of compounds. The medium in the 384-well black cell culture plate was discarded and changed to reaction buffer. 10 μL of 5×compound solution was transferred using Bravo, and then 10 μL of Fluo-8 staining mixture was added immediately. The plate was incubated in the dark in a 37° C., 5% CO2 incubator for 0.5 h.
4.9. FLIPR was correspondingly programmed, the 6×LPA solution was added, and readings were taken. Two-minute data were collected.
4.10. Finally, the output fluorescence counts were analyzed, and IC50 was calculated for the compounds.

T1 sequence (Q92633 whole entry): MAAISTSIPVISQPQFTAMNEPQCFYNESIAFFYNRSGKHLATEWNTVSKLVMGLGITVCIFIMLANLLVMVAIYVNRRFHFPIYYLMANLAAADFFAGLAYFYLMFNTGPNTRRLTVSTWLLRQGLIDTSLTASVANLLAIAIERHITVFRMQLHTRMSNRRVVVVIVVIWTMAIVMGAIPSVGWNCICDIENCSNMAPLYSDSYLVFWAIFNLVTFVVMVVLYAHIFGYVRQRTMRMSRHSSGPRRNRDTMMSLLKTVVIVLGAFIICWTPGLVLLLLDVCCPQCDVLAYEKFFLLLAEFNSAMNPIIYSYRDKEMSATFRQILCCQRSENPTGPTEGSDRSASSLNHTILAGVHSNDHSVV

Row | Structure (SMILES) | IC50
1 | Cc1nc(-c2nnn(C)c2COc2nccc(C(F)(F)F)n2)ccc1OC1CC2CCC(C(=O)O)C2C1 (single isomer, unassigned) [Compound 1-P1, 5-((2-Methyl-6-(1-methyl-5-(((4-(trifluoromethyl)pyrimidin-2-yl)oxy)methyl)-1H-1,2,3-triazol-4-yl)pyridin-3-yl)oxy)octahydropentalene-1-carboxylic acid] | 13.3 nM
2 | Cc1nc(-c2nnn(C)c2COc2nccc(C(F)(F)F)n2)ccc1OC1CC2CCC(C(=O)O)C2C1 (single isomer, unassigned) [Compound 1-P2, 5-((2-Methyl-6-(1-methyl-5-(((4-(trifluoromethyl)pyrimidin-2-yl)oxy)methyl)-1H-1,2,3-triazol-4-yl)pyridin-3-yl)oxy)octahydropentalene-1-carboxylic acid] | 659 nM
3 | Cc1nc(-c2nnn(C)c2COc2noc(C3CC3)n2)ccc1OC1CC2CCC(C(=O)O)C2C1 (single isomer, unassigned) [Compound 2-P1, 5-((6-(5-(((5-Cyclopropyl-1,2,4-oxadiazol-3-yl)oxy)methyl)-1-methyl-1H-1,2,3-triazol-4-yl)-2-methylpyridin-3-yl)oxy)octahydropentalene-1-carboxylic acid] | 26 nM
4 | COCc1ccnc(OCc2c(-c3ccc(OC4CC5CCC(C(=O)O)C5C4)c(C)n3)nnn2C)n1 (single isomer, unassigned) [Compound 3-P2, 5-((6-(5-(((4-(Methoxymethyl)pyrimidin-2-yl)oxy)methyl)-1-methyl-1H-1,2,3-triazol-4-yl)-2-methylpyridin-3-yl)oxy)octahydropentalene-1-carboxylic acid] | 1380 nM
5 | CCc1cc(OCc2c(-c3ccc(OC4CC5CCC(C(=O)O)C5C4)c(C)n3)nnn2C)ncn1 (single isomer, unassigned) [Compound 4-P1, 5-((6-(5-(((6-Ethylpyrimidin-4-yl)oxy)methyl)-1-methyl-1H-1,2,3-triazol-4-yl)-2-methylpyridin-3-yl)oxy)octahydropentalene-1-carboxylic acid] | 746 nM
6 | CCc1cc(OCc2c(-c3ccc(OC4CC5CCC(C(=O)O)C5C4)c(C)n3)nnn2C)ncn1 (single isomer, unassigned) [Compound 4-P2, 5-((6-(5-(((6-Ethylpyrimidin-4-yl)oxy)methyl)-1-methyl-1H-1,2,3-triazol-4-yl)-2-methylpyridin-3-yl)oxy)octahydropentalene-1-carboxylic acid] | 35.8 nM
7 | COCc1ccnc(OCc2c(-c3ccc(OC4CC5CCC(F)(C(=O)O)C5C4)c(C)n3)nnn2C)n1 (single isomer, unassigned) [Compound 5-P1, 1-Fluoro-5-((6-(5-(((4-(methoxymethyl)pyrimidin-2-yl)oxy)methyl)-1-methyl-1H-1,2,3-triazol-4-yl)-2-methylpyridin-3-yl)oxy)octahydropentalene-1-carboxylic acid] | 15.6 nM
8 | Cc1nc(-c2nnn(C)c2COc2nccc(O[C@H]3CCOC3)n2)ccc1OC1CC2CCC(C(=O)O)C2C1 (single isomer, unassigned) [Compound 9-P2] | 853 nM
9 | CCOCc1ccnc(OCc2c(-c3ccc(OC4CC5CCC(C(=O)O)C5C4)c(C)n3)nnn2C)n1 (single isomer, unassigned) [Compound 13-P1, 5-((6-(5-(((4-(Ethoxymethyl)pyrimidin-2-yl)oxy)methyl)-1-methyl-1H-1,2,3-triazol-4-yl)-2-methylpyridin-3-yl)oxy)octahydropentalene-1-carboxylic acid] | 1090 nM

Next, values leading:

Row | IC50 | Structure (SMILES)
10 | 2690 nM | Cc1nc(-c2nnn(C)c2COc2noc(C3CC3)n2)ccc1OC1CC2CCC(C(=O)O)C2C1 (single isomer, unassigned) [Compound 2-P2, 5-((6-(5-(((5-Cyclopropyl-1,2,4-oxadiazol-3-yl)oxy)methyl)-1-methyl-1H-1,2,3-triazol-4-yl)-2-methylpyridin-3-yl)oxy)octahydropentalene-1-carboxylic acid]
11 | 8.7 nM | COCc1ccnc(OCc2c(-c3ccc(OC4CC5CCC(C(=O)O)C5C4)c(C)n3)nnn2C)n1 (single isomer, unassigned) [Compound 3-P1, 5-((6-(5-(((4-(Methoxymethyl)pyrimidin-2-yl)oxy)methyl)-1-methyl-1H-1,2,3-triazol-4-yl)-2-methylpyridin-3-yl)oxy)octahydropentalene-1-carboxylic acid]
12 | 917 nM | COCc1ccnc(OCc2c(-c3ccc(OC4CC5CCC(F)(C(=O)O)C5C4)c(C)n3)nnn2C)n1 (single isomer, unassigned) [Compound 5-P2, 1-Fluoro-5-((6-(5-(((4-(methoxymethyl)pyrimidin-2-yl)oxy)methyl)-1-methyl-1H-1,2,3-triazol-4-yl)-2-methylpyridin-3-yl)oxy)octahydropentalene-1-carboxylic acid]
13 | 28 nM | Cc1nc(-c2nnn(C)c2COc2nccc(O[C@@H]3CCOC3)n2)ccc1OC1CC2CCC(C(=O)O)C2C1 (single isomer, unassigned) [Compound 8-P1]
14 | 502 nM | Cc1nc(-c2nnn(C)c2COc2nccc(O[C@@H]3CCOC3)n2)ccc1OC1CC2CCC(C(=O)O)C2C1 (single isomer, unassigned) [Compound 8-P2]
15 | 33.4 nM | Cc1nc(-c2nnn(C)c2COc2nccc(O[C@H]3CCOC3)n2)ccc1OC1CC2CCC(C(=O)O)C2C1 (single isomer, unassigned) [Compound 9-P1]
16 | 88.7 nM | Cc1nc(-c2nnn(C)c2COc2nccc(C(C)(C)O)n2)ccc1OC1CC2CCC(C(=O)O)C2C1 (single isomer, unassigned) [Compound 10-P1, 5-((6-(5-(((4-(2-Hydroxypropan-2-yl)pyrimidin-2-yl)oxy)methyl)-1-methyl-1H-1,2,3-triazol-4-yl)-2-methylpyridin-3-yl)oxy)octahydropentalene-1-carboxylic acid]
17 | 1860 nM | Cc1nc(-c2nnn(C)c2COc2nccc(C(C)(C)O)n2)ccc1OC1CC2CCC(C(=O)O)C2C1 (single isomer, unassigned) [Compound 10-P2, 5-((6-(5-(((4-(2-Hydroxypropan-2-yl)pyrimidin-2-yl)oxy)methyl)-1-methyl-1H-1,2,3-triazol-4-yl)-2-methylpyridin-3-yl)oxy)octahydropentalene-1-carboxylic acid]
18 | > 10000 nM | COc1ccnc(OCc2c(-c3ccc(OC4CC5CCC(C(=O)O)C5C4)c(C)n3)nnn2C)n1 (single isomer, unassigned) [Compound 11-P1, 5-((6-(5-(((4-Methoxypyrimidin-2-yl)oxy)methyl)-1-methyl-1H-1,2,3-triazol-4-yl)-2-methylpyridin-3-yl)oxy)octahydropentalene-1-carboxylic acid]
19 | 50.6 nM | COc1ccnc(OCc2c(-c3ccc(OC4CC5CCC(C(=O)O)C5C4)c(C)n3)nnn2C)n1 (single isomer, unassigned) [Compound 11-P2, 5-((6-(5-(((4-Methoxypyrimidin-2-yl)oxy)methyl)-1-methyl-1H-1,2,3-triazol-4-yl)-2-methylpyridin-3-yl)oxy)octahydropentalene-1-carboxylic acid]
20 | 27.9 nM | CCOCc1ccnc(OCc2c(-c3ccc(OC4CC5CCC(C(=O)O)C5C4)c(C)n3)nnn2C)n1 (single isomer, unassigned) [Compound 13-P2, 5-((6-(5-(((4-(Ethoxymethyl)pyrimidin-2-yl)oxy)methyl)-1-methyl-1H-1,2,3-triazol-4-yl)-2-methylpyridin-3-yl)oxy)octahydropentalene-1-carboxylic acid]
